Measurements published in article PMC12150326 (The Journal of Organic Chemistry, 2025).

Experiments:
Type in all cases: cell-based, human
A549 = assay: Cell-growth inhibition (CellTiter); conditions: A549, 3 days; read-out: Cell Growth Inhibition GI50 ± SE
Protocol: (§1) Inhibition of cell growth was determined by using standard procedures. Cell lines were obtained from the NCI anticancer drug screen and maintained in DMEM medium supplemented with 10% fetal bovine serum. Growing cells were exposed to serial dilutions of each compound for 3 days. Cell growth was determined with CellTiter Assay Reagent (Promega), and growth parameters, including inhibition of growth, were measured by using the methods specified by the manufacturer.

PC3 = assay: Cell-growth inhibition (CellTiter); conditions: PC3, 3 days; read-out: Cell Growth Inhibition GI50 ± SE
Protocol: as §1

M14 = assay: Cell-growth inhibition (CellTiter); conditions: M14, 3 days; read-out: Cell Growth Inhibition GI50 ± SE
Protocol: as §1

MCF7 = tested on: MCF7
Protocol: (§2) (aR)-6, (aS)-6, (aS)-iso -6, and (aR)-iso -6 were submitted to the 60 Cell Screen panel and evaluated at 5 doses (100 μM, 10 μM, 1 μM, 0.1 μM, and 0.01 μM). […] The complete report from this submission is available at the publisher’s Web site as a separate Supporting Information file. For COMPARE analysis, TGI levels of response for (aR)-DM-MTC (6) and (aS)-iso-DM-MTC were compared to those of several established tubulin inhibitors previously tested in the NCI-60 screen.

NCI-H460 = tested on: NCI-H460
Protocol: as §2

A549/ATCC = tested on: A549/ATCC
Protocol: as §2

SN12C = tested on: SN12C
Protocol: as §2

MDA-MB-468 = tested on: MDA-MB-468
Protocol: as §2

A498 = tested on: A498
Protocol: as §2

EKVX = tested on: EKVX
Protocol: as §2

HOP-92 = tested on: HOP-92
Protocol: as §2

ACHN = tested on: ACHN
Protocol: as §2

MALME-3M = tested on: MALME-3M
Protocol: as §2

SK-MEL-28 = tested on: SK-MEL-28
Protocol: as §2

HT29 = tested on: HT29
Protocol: as §2

OVCAR-4 = tested on: OVCAR-4
Protocol: as §2

PC-3 = tested on: PC-3
Protocol: as §2

HOP-62 = tested on: HOP-62
Protocol: as §2

SK-OV-3 = tested on: SK-OV-3
Protocol: as §2

NCI 60 cell lines = tested on: NCI 60 cell lines
Protocol: as §2

HCT-116 = tested on: HCT-116
Protocol: as §2

NCI-H522 = tested on: NCI-H522
Protocol: as §2

HL-60(TB) = tested on: HL-60(TB)
Protocol: as §2

SK-MEL-2 = tested on: SK-MEL-2
Protocol: as §2

COLO 205 = tested on: COLO 205
Protocol: as §2

IGROV1 = tested on: IGROV1
Protocol: as §2

With `COc1cc(C)c(-c2ccc(OC)c(=O)cc2C)c(OC)c1OC` (single isomer, unassigned) [(aS)-6] the GI50 (A549) was > 20 µM, the GI50 (PC3) was > 20 µM and the GI50 (M14) was > 20 µM. For the same molecule, the Log10GI50 (MCF7) was > -4.00 Molar, the Log10LC50 (MCF7) was > -4.00 Molar and the Log10TGI (MCF7) was > -4.00 Molar. For the same molecule, the Log10GI50 (NCI-H460) was > -4.00 Molar, the Log10LC50 (NCI-H460) was > -4.00 Molar and the Log10TGI (NCI-H460) was > -4.00 Molar. For the same molecule, the Log10GI50 (A549/ATCC) was > -4.00 Molar, the Log10LC50 (A549/ATCC) was > -4.00 Molar and the Log10TGI (A549/ATCC) was > -4.00 Molar. The Log10GI50 (SN12C) was > -4.00 Molar, the Log10LC50 (SN12C) was > -4.00 Molar and the Log10TGI (SN12C) was > -4.00 Molar. For the same molecule, the Log10GI50 (MDA-MB-468) was -4.20 Molar, the Log10LC50 (MDA-MB-468) was > -4.00 Molar and the Log10TGI (MDA-MB-468) was > -4.00 Molar. The Log10GI50 (A498) was > -4.00 Molar, the Log10LC50 (A498) was > -4.00 Molar and the Log10TGI (A498) was > -4.00 Molar. For the same molecule, the Log10GI50 (EKVX) was > -4.00 Molar, the Log10LC50 (EKVX) was > -4.00 Molar and the Log10TGI (EKVX) was > -4.00 Molar. The Log10GI50 (HOP-92) was -4.65 Molar, the Log10LC50 (HOP-92) was > -4.00 Molar and the Log10TGI (HOP-92) was > -4.00 Molar. For the same molecule, the Log10GI50 (ACHN) was > -4.00 Molar, the Log10LC50 (ACHN) was > -4.00 Molar and the Log10TGI (ACHN) was > -4.00 Molar. The Log10GI50 (MALME-3M) was > -4.00 Molar, the Log10LC50 (MALME-3M) was > -4.00 Molar and the Log10TGI (MALME-3M) was > -4.00 Molar. For the same molecule, the Log10GI50 (SK-MEL-28) was > -4.00 Molar, the Log10LC50 (SK-MEL-28) was > -4.00 Molar and the Log10TGI (SK-MEL-28) was > -4.00 Molar. For the same molecule, the Log10GI50 (HT29) was > -4.00 Molar, the Log10LC50 (HT29) was > -4.00 Molar and the Log10TGI (HT29) was > -4.00 Molar. For the same molecule, the Log10GI50 (OVCAR-4) was > -4.00 Molar, the Log10LC50 (OVCAR-4) was > -4.00 Molar and the Log10TGI (OVCAR-4) was > -4.00 Molar. For the same molecule, the Log10GI50 (PC-3) was > -4.00 Molar, the Log10LC50 (PC-3) was > -4.00 Molar and the Log10TGI (PC-3) was > -4.00 Molar. The Log10GI50 (HOP-62) was > -4.00 Molar, the Log10LC50 (HOP-62) was > -4.00 Molar and the Log10TGI (HOP-62) was > -4.00 Molar. The Log10GI50 (SK-OV-3) was > -4.00 Molar, the Log10LC50 (SK-OV-3) was > -4.00 Molar and the Log10TGI (SK-OV-3) was > -4.00 Molar. The “cytotoxicity at the highest concentration tested” value (NCI 60 cell lines; 100 μM) was “not cytotoxic”, the “Log10 Range at TGI” value (NCI 60 cell lines; NCI-60 cell line selectivity, listed as (aS)-DM-MTC (6)) was 0 and the “Mean TGI” value (NCI 60 cell lines; NCI-60 mean total growth inhibition, listed as (aS)-DM-MTC (6)) was > 100 µM. The GI50 (NCI 60 cell lines; NCI-60 mean, listed as (aS)-DM-MTC (6)) was > 100 µM, the “Delta Log10GI50” value (NCI 60 cell lines; mean graph) was 0.63 and the “Delta Log10LC50” value (NCI 60 cell lines; mean graph) was 0. The “Delta Log10TGI” value (NCI 60 cell lines; mean graph) was 0, the “Range Log10GI50” value (NCI 60 cell lines; mean graph) was 0.65 and the “Range Log10LC50” value (NCI 60 cell lines; mean graph) was 0.0. The “Range Log10TGI” value (NCI 60 cell lines; mean graph) was 0.0, the “_MID Log10GI50” value (NCI 60 cell lines; mean graph midpoint) was -4.02 Molar and the “_MID Log10LC50” value (NCI 60 cell lines; mean graph midpoint) was -4.0 Molar. The “_MID Log10TGI” value (NCI 60 cell lines; mean graph midpoint) was -4.0 Molar, the Log10GI50 (HCT-116) was > -4.00 Molar and the Log10LC50 (HCT-116) was > -4.00 Molar. The Log10TGI (HCT-116) was > -4.00 Molar, the Log10GI50 (NCI-H522) was > -4.00 Molar and the Log10LC50 (NCI-H522) was > -4.00 Molar. For the same molecule, the Log10TGI (NCI-H522) was > -4.00 Molar, the Log10GI50 (HL-60(TB)) was > -4.00 Molar and the Log10LC50 (HL-60(TB)) was > -4.00 Molar. For the same molecule, the Log10TGI (HL-60(TB)) was > -4.00 Molar, the Log10GI50 (SK-MEL-2) was > -4.00 Molar and the Log10LC50 (SK-MEL-2) was > -4.00 Molar. For the same molecule, the Log10TGI (SK-MEL-2) was > -4.00 Molar, the Log10GI50 (COLO 205) was > -4.00 Molar and the Log10LC50 (COLO 205) was > -4.00 Molar. For the same molecule, the Log10TGI (COLO 205) was > -4.00 Molar, the Log10GI50 (IGROV1) was > -4.00 Molar and the Log10LC50 (IGROV1) was > -4.00 Molar. For the same molecule, the Log10TGI (IGROV1) was > -4.00 Molar.
